In BindingDB's records for doi:10.1074/jbc.M113.519421 (University of Michigan, 2014) one finds Kd data, which are given here for six molecules.

Bounds are passed on as bounds.

For this assay, the target named is T1, Serine/threonine-protein phosphatase 5 (Homo sapiens, UniProt P53041).
T1 sequence (P53041 whole entry): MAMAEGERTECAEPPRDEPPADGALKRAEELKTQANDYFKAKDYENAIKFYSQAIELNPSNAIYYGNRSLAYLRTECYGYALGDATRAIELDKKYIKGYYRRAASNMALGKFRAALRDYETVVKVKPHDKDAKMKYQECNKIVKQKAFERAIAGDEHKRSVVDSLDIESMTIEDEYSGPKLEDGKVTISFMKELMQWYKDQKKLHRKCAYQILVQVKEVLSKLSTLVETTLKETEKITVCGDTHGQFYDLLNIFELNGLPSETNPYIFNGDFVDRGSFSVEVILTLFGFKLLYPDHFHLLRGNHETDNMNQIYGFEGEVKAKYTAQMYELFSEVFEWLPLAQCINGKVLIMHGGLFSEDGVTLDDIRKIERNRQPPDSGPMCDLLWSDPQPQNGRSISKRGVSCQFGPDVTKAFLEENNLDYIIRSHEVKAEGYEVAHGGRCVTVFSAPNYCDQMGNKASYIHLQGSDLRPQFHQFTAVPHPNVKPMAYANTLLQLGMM
The assay can be described thus: Fluorescence Polarization Assay. Conditions: pH 7.4; 25 °C. The protocol:
All fluorescence polarization experiments were conducted in 384-well, black, low volume, round-bottomed plates (Corning) using a BioTeck Synergy 2 plate reader (Winooski, VT). For binding experiments, to each well was added increasing amounts of protein and the 5-carboxyfluorescein-labeled Hsp70/90 C-terminal probe/tracer (20 nM). […] The plate was allowed to incubate at room temperature for 5 min toreach equilibrium. […] An equilibrium binding isotherm was constructed by plotting the fluorescence polarization reading as a function of the protein concentration at a fixed concentration of tracer (20 nM).

On to `CSCC[C@H](NC(=O)[C@H](CCCNC(=N)N)NC(=O)[C@H](CO)NC(=O)[C@H](C)NC(=O)[C@H](CC(=O)O)NC(=O)[C@@H](N)CCC(=O)O)C(=O)N[C@@H](CCC(=O)O)C(=O)N[C@@H](CCC(=O)O)C(=O)N[C@H](C(=O)N[C@@H](CC(=O)O)C(=O)O)C(C)C`, for which the Kd is 77 nM.
The result for `CC[C@H](C)[C@H](NC(=O)[C@@H](NC(=O)[C@@H]1CCCN1C(=O)CNC(=O)[C@H](CO)NC(=O)[C@@H](N)CO)[C@@H](C)O)C(=O)N[C@@H](CCC(=O)O)C(=O)N[C@@H](CCC(=O)O)C(=O)N[C@H](C(=O)N[C@@H](CC(=O)O)C(=O)O)C(C)C` reads 1060 nM; that for `CSCC[C@H](NC(=O)[C@@H](NC(=O)[C@@H]1CCCN1C(=O)CNC(=O)[C@H](CO)NC(=O)CN)[C@@H](C)O)C(=O)N[C@@H](CCC(=O)O)C(=O)N[C@@H](CCC(=O)O)C(=O)N[C@H](C(=O)N[C@@H](CC(=O)O)C(=O)O)C(C)C`, 133 nM; that for `CC[C@H](C)[C@H](N)C(=O)N[C@@H](CCC(=O)O)C(=O)N[C@@H](CCC(=O)O)C(=O)N[C@H](C(=O)N[C@@H](CC(=O)O)C(=O)O)C(C)C` [IEEVD], 426 nM.
The result for H-DDTSRIEEVD-OH reads 420 nM; that for H-DVEEM-OH [DVEEM], over 10000 nM.

The Kd is the equilibrium constant for the complex coming apart.
